Consider one compound from US11406605B2, “Therapeutic compositions for treating pancreatic cancer” (Golden Biotechnology Corporation, priority 2017, dated 2022).

Data set [1] in a line: Body weight and hematological parameters in AsPC-1 xenograft study. The data set is classed as in vivo. As to the method:
A. Clinical Observations: Clinical observations of each study animal were performed and at least once daily (including weekends and holidays) for signs of morbidity, mortality and Test Article toxicity. Morbidity includes signs of illness such as, but not limited to, emaciation, dehydration, lethargy, hunched posture, unkempt appearance, dyspnea and urine or fecal staining. All abnormal findings will be recorded.
B. Animal Weights: Individual animal weights were taken one (1) time per week after/before dosing. Weights were recorded first prior to cell injections and continued for the duration of the study.
D. Hematological parameters: Cardiac blood was collected in EDTA for analyzing hematological parameters such as white blood cell count (WBC), red blood cell count (RBC), hemoglobin concentration (HB), hematocrit, mean corpuscular hemoglobin and concentration, platelet distribution width, platelet count, neutrophils, lymphocytes, monocytes, eosinophils. This was determined using hematology counter (Abbott Cell-Dyn 3700, IL).

The test system of data set [2] is AsPC-1 subcutaneous xenograft. As to the kind of experiment: Antitumor activity on AsPC-1 subcutaneous xenograft model. The class given is in vivo, nude mice. As to the method:
The human pancreatic carcinoma cell line, AsPC-1, was cultured and the cells were injected subcutaneously in a flank of 60 mice. Three days later, the tumors could be felt in the mice. When tumors reached approximately 100-200 mg (mm^3), total of fifty one (51) tumor-bearing mice were randomly selected and sorted into one of six (6) groups. Vehicle (corn oil) treated mice were used as negative controls. Compound 1 combined with gemcitabine or paclitaxel were administered orally once a day and/or I.V. twice a week for four (4) weeks. Tumor measurements were recorded once a week using hand-held calipers and Visualsonic Vevo 2100 image system. Individual mouse weights were taken once a week during dosing. Mice were monitored daily for signs of toxicity and morbidity; any abnormal findings were recorded. The study was terminated four (4) weeks after initiation of drug administration.
D. Human Pancreatic Carcinoma Xenograft Models: • 1. To create the subcutaneous xenograft model, athymic female nude mice (4-6 weeks old) were subcutaneously inoculated with 1×10^7 AsPC-1 cells in 0.1 mL of serum-free DMEM medium containing 20% Matrigel (BD Biosciences, Bedford Mass.). • 2. Tumor-bearing animals were divided into the following 6 groups as table 1. • 3. The mice were monitored for activity and physical condition every day, and the determination of body weight and measurement tumor mass should be done once a week. Tumor image will be photed by digital camera and Visualsonic Vevo 2100 image system. Tumor mass is determined by caliper measurement in two perpendicular diameters of the implant and calculate using the formula […], where “a” stands for the long diameter and “b” is the short diameter.
a. Cell Injections: Mice were injected subcutaneously into the right lateral thorax with 1×10^7 viable human pancreatic carcinoma AsPC-1 Cells. […]
C. Tumor Measurements: The injection site of each animal was monitored one (1) time per week for signs of tumor growth. Throughout the study, the length (a) and width (b) of any tumors developed were measured in millimeters (mm) using vernier calipers, where a is the longer of the two (2) dimensions.
D. Evaluation of drug synergistic effect by tumor growth inhibition (TGI) and tumor inhibitory ratio (TIR): Volume of tumor growth inhibition (TGI) for each group was calculated according to the following formula: Tumor growth inhibition (%)=(1−[T−T0]/[C−C0])×100 • T and T0 are the mean tumor volumes on the end day and day 1 of treatment, respectively, for the experimental groups. […] The tumor inhibitory ratio was calculated by the formula: Tumor inhibitory ratio (%)=[(WControl−WTreated)/WControl]×100% • WTreated and WControl are the average tumor weights of the treated and control mice, respectively. […]

Where [3] appears, read: cardiac blood, AsPC-1 xenograft study, mean ± SEM, n = 3.
Setting [4] is: AsPC-1 xenograft, 28 days treatment.

In the case of `COC1=C(OC)C(O)C(C/C=C(\C)CC/C=C(\C)CCC=C(C)C)C(C)C1=O` (centres unmarked) [Compound 1, 4-hydroxy-2,3-dimethoxy-6-methyl-5-(3,7,11-trimethyldodeca-2,6,10-trienyl)cyclohex-2-enone], in data set [1] (AsPC-1 xenograft), the “number of blood cells” value is “did not affect number of blood cells except for blood glucose”. In data set [1] (setting [3]), this compound showed an HCT of 50.3 ± 1.8%, an HGB of 15.6 ± 1.1 g/dL, an MCH of 15.3 ± 0.3 pg and an MCV of 53.6 ± 2.3 fL. In data set [1] (setting [3]), the RBC is recorded as 9.93 ± 1.34 10^12/L and the WBC is on record as 7.34 ± 0.71 10^9/L. Moreover, in data set [2] (setting [4]), the “Response, TCR (tumor volume of treatment-to-control ratios)” value stood at 0.55; the “TGI (volume of tumor growth inhibition)” value was determined as 51%; the “TIR (tumor weight inhibitory ratio)” value amounted to 45%. In addition, in data set [2] (after 28 days of treatments, A 120 mg/kg oral daily, G/P IV twice weekly, mean ± SEM), the Tumor weight of excised tumors at the time of sacrifice is 0.21 ± 0.07 g.
